Experimental data from US7994399B2, “Methods for the production of stably transformed, fertile Zea mays plants” (BASF Plant Science GmbH, priority 2005, dated 2011).
Marks after values point to notes of the source that are not given here.

Legend:
[1] = test system: Zea mays immature embryos; test: Agrobacterium-mediated transformation of maize immature embryos, additives in the co-cultivation medium; assay type: cell-based; conditions: for Average TE (%) (transformation efficiency): L-cysteine added (+) to co-cultivation medium, split-cob design, drop inoculation
Procedure: Adjust pH media to 5.8 with 1 M NaOH. Weigh 4 g Sigma Purified Agar per bottle (8 g/L) and dispense 500 mL media per bottle, autoclave. When cooled add AgNO3 (stock at 15 mM) to a final concentration of 15 μM and L-cysteine (stock at 150 mg/ml) to a final concentration 300 mg/l. Pour into 100×20 mm Petri plates. Medium containing acetosyringone should be used freshly without long term storage.
Excised immature embryos are directly put on the co-cultivation medium (medium A-3) with the flat side down (scutellum upward). Each plate (20×100 mm plate) can hold up to 100 immature embryos. Put 5 μl of diluted Agrobacterium cell suspension to each immature embryo with a repeat pipettor. Remove excess moisture covering immature embryos by leaving the plate cover open in the hood for about 15 min. Seal the plate with 3M micropore tape and wrap with aluminum foil. Incubate the plate in the dark at 22° C. for 2 to 3 days. Take 3-5 immature embryos for GUS staining if a GUS construct is used to assess transient GUS expression.

XI12 mutant maize lines = conditions: cited from earlier work
Maize XA17 mutants = conditions: cited from earlier work
[2] = addition to co-cultivation medium, BPS553×(HiIIA×A188) genotypes

Compound	Effect on transformation efficiency [1, 2]	Average TE (%) (transformation efficiency) ([1]; hybrid BPS553x(HillAxA188), 20 experiments)	Average TE (%) (transformation efficiency) ([1]; inbred BPS553, 27 experiments)	Effect on transformation efficiency ([1]; presence in the co-cultivation medium)	Resistance or sensitivity of the plants to the herbicide (XI12 mutant maize lines)	Resistance or tolerance of the plants to the herbicide (Maize XA17 mutants)
N[C@@H](CS)C(=O)O [L-Cysteine]	further enhances transformation efficiency	32.2* %	9.6* %	significantly increasing transformation efficiency	–	–
CC(C)C1(C)N=C(c2nc3ccccc3cc2C(=O)O)NC1=O (stereo not drawn) [imazaquin]	–	–	–	–	sensitive	highly resistant
CCc1cnc(C2=NC(C)(C(C)C)C(=O)N2)c(C(=O)O)c1 (stereo not drawn) [imazethapyr]	–	–	–	–	highly resistant	highly resistant
O=[N+]([O-])[O-].[Ag+] [silver nitrate]	further enhances transformation efficiency	–	–	–	–	–
